Source: patent publication US8168232B2, “Formulations and methods of using nitric oxide mimetics in cancer treatment” (priority 2000, dated 2012)
Structures can show the parent of a compound that is named as a salt.

Key:
uPAR mRNA = experiment: Northern blot analysis of uPAR mRNA in MDA-MB-231 breast carcinoma cells; assay type: cell-based, human
[1] = tested on: MDA-MB-231 breast carcinoma spheroids; experiment: Clonogenic survival of MDA-MB-231 spheroids after doxorubicin; assay type: cell-based, human
Description: Following initial cell plating, spheroids formed for 24, 48, 72, 96 or 120 h. At each time point, spheroids were exposed to 200 μM of doxorubicin, then disaggregated and plated for assessment of colony formation (survival).
Spheroids were allowed to form for 72 h. DETA/NO was applied for the final 24 h of spheroid formation. Spheroids were then exposed to doxorubicin for 1 h, prior to disaggregation and plating for assessment of survival by clonogenic assay.
Using human MDA-MB-231 breast carcinoma cells in clonogenic assays, survival was determined following doxorubicin exposure and NO mimetic administration to both monolayer and spheroid cultures.

[2] = concentrations up to 500 μM; cited from earlier work
uPAR protein = experiment: Western blot analysis of uPAR protein in MDA-MB-231 breast carcinoma cells; assay type: cell-based, human
Description: Following incubations, the cells were lysed using a buffer containing 40 mM HEPES pH 7.2, 100 mM NaCl, 20% glycerol, 0.1 mM EDTA pH 8.0, 0.2% Triton X-100, 1 mM DTT, and 2 mM PMSF. The lysates were then subjected to homogenization, DNA shearing (10 times with a 25⅝-gauge needle), boiling (5 minutes) and centrifugation (15 minutes, 14000 g). The supernatant was collected and stored at −80° C. until use. The samples were subjected to SDS-polyacrylamide gel electrophoresis (PAGE) and the resolved proteins were transferred to an Immobilon-P membrane using a wet transfer apparatus (Bio-Rad Laboratories, Mississauga, ON). The membranes were blocked overnight at 4° C. in a solution containing 1% PBS, and 0.01% Tween20 (PBS-T) as well as 5% casein. The blots were subsequently incubated for 1.5 hours with the monoclonal anti-uPAR antibody [MoAb 3937], followed by six 5 minute washes with PBS-T. The membranes were then incubated with a horseradish peroxidase labeled goat anti-mouse IgG secondary antibody for 1.5 hours. Following six additional 5 minute washes with PBS-T, the antigen was detected by enhanced chemiluminescence and the blots were exposed onto Dupont Reflection NEF film.
Following incubation, the cells were lysed using a buffer containing 40 mM HEPES pH 7.2, 100 mM NaCl, 20% glycerol, 0.1 mM EDTA pH 8.0, 0.2% Triton X-100, 1 mM dithiothreitol (DTT), and 2 mM phenylmethyl sulfonyl fluoride (PMSF). The lysates were then subjected to homogenization, DNA shearing (10 times with a 25⅝-gauge needle), boiling (5 minutes) and centrifugation (15 minutes at 14,000×g). The supernatant was collected and stored at −80° C. until use. The samples were subjected to SDS-polyacrylamide gel electrophoresis (PAGE) and the resolved proteins were transferred to an Immobilon-P membrane (Millipore Corp., Bedford, Mass.) using a wet transfer apparatus (BioRad Laboratories, Mississauga, ON). The membranes were blocked overnight at 4° C. in a solution containing 1% PBS, and 0.01% Tween 20 (PBS-T) as well as 5% dry milk powder. The blots were subsequently incubated for 1.5 hours with the monoclonal anti-uPAR (MoAb 3937; American Diagnostica Inc., Greenwich, Conn.), or a polyclonal soluble guanylate cyclase (sGC) antiserum (Cayman Chemical, Ann Arbor, Mich.) followed by six 5-minute washes with PBS-T. Subsequently, the uPAR membranes were incubated for 1 hour with a horseradish peroxidase labelled goat anti-mouse IgG secondary antibody (Bio-Rad, Hercules, Calif.) and the sGC membranes were incubated for 1 hour with a goat anti-rabbit IgG horseradish peroxidase conjugate (VECTOR Laboratories Inc., Burlingame, Calif.). Following six additional 5-minute washes with PBS-T, the antigen was detected by enhanced chemiluminescence (Amersham Canada Inc., Mississauga, ON) and the blots were exposed onto Dupont Reflection NEF film.

Q: Which “increase in uPAR mRNA levels” value (uPAR mRNA; cells cultured in the presence of DFO) does the source give for `CC(=O)N(O)CCCCCNC(=O)CCC(=O)N(O)CCCCCNC(=O)CCC(=O)N(O)CCCCCN.CS(=O)(=O)O` [DFO, Desferoxamine mesylate] here?
A: Its value is 4 fold.

Q: Which “attenuation of resistance to 200 μM doxorubicin associated with 3D culture” value [1] does the source give for `NCCN(CCN)/[N+]([O-])=N/O` [DETA, Diethylenetriamine/nitric oxide adduct] here?
A: The value was 90%.

Q: What about the “survival of control (doxorubicin-untreated) cells” value ([1]; DETA 0.1 mM and 2 μM, GTN 0.1 nM and 1 μM) of the same molecule?
A: Its value is “did not affect the survival”.

Q: Which cell viability [2] does the source give for `CC(C)N[N+]([O-])=N[O-].[Na+]` [isopropylamine-bis(nitric oxide) adduct sodium salt] here?
A: Its cell viability is “did not significantly affect cell viability”.

Q: For `CCCN(CCCN)N(O)N=O` [3-(n-propylamino)propylamine bis(nitric oxide) adduct], which cell viability [2] is on record?
A: The cell viability was “did not significantly affect cell viability”.

Q: For `COC(=O)[C@@]1(OC)C[C@H]2O[C@]1(C)n1c3ccccc3c3c4c(c5c6ccccc6n2c5c31)C(=O)N(C)C4` [KT5823], which “increase in uPAR protein expression” value (uPAR protein; KT5823 10 μM, 6 hours, 20% O2) is on record?
A: The value was 1.8 fold.

Q: What about the “effect on the effects of 8-Br-cGMP on uPAR expression” value (uPAR mRNA; KT5823 10 μM) of the same molecule?
A: The value was “significantly blunted”.

Q: What about the “increase in uPAR mRNA expression” value (uPAR mRNA; KT5823 10 μM, 6 hours, 20% O2) of the same molecule?
A: The value was 1.8 fold.

Q: Which “effect on ability of GTN (10^−6 M) to abrogate hypoxic induction of uPAR, protein level” value (uPAR protein; ODQ 0.5 μM) does the source give for `O=c1onc2cnc3ccccc3n12` [ODQ, 1H-[1,2,4]Oxadiazolo-[4,3-a]Quinoxalin-1-One] here?
A: The value was “substantially prevented”.

Q: What about the “effect on ability of GTN (10^−6 M) to abrogate hypoxic induction of uPAR, mRNA level” value (uPAR mRNA; ODQ 0.5 μM) of the same molecule?
A: Its value is “substantially prevented”.

Q: What about the “increase in uPAR mRNA levels” value (uPAR mRNA; ODQ 0.5 μM, 24 hours, vs 20% O2 alone) of the same molecule?
A: The value was 2.7 fold.

Q: For sodium trioxodinitrate (II) monohydrate, which cell viability [2] is on record?
A: The cell viability was “did not significantly affect cell viability”.

Q: For `CCN(CC)[N+]([O-])=NO` [diethylamine-bis(nitric oxide) adduct sodium salt], which cell viability [2] is on record?
A: The cell viability was “did not significantly affect cell viability”.

Q: For `O=NN(O)S(=O)(=O)O` [N-nitrosohydroxylamine-N-sulfonate], which cell viability [2] is on record?
A: Its cell viability is “did not significantly affect cell viability”.
